Data taken from patent US10039283B2, “Substituted pyrazolyl-nicotin(thio)amide derivatives and their use as fungicides” (BAYER CROPSCIENCE AKTIENGESELLSCHAFT, priority 2014, dated 2018).

Legend:
[1] = Log P by HPLC on reversed phase, method [a], acidic range (0.1% formic acid); assay type: physicochemical; details: LC-UV, 0.1% formic acid in water and acetonitrile
[2] = Log P by HPLC on reversed phase, method [b], neutral range (0.001 molar ammonium acetate); assay type: physicochemical
Procedure: Measurement of Log P values was performed according to EEC directive 79/831 Annex V.A8 by HPLC (High Performance Liquid Chromatography) on reversed phase columns with the following methods: [b] Log P value is determined by measurement of LC-UV, in a neutral range, with 0.001 molar ammonium acetate solution in water and acetonitrile as eluent (linear gradient from 10% acetonitrile to 95% acetonitrile). Calibration was done with straight-chain alkan2-ones (with 3 to 16 carbon atoms) with known Log P values (measurement of Log P values using retention times with linear interpolation between successive alkanones). Lambda-max-values were determined using UV-spectra from 200 nm to 400 nm and the peak values of the chromatographic signals.

| Structure (SMILES) | LogP [1] | LogP [2] |
| --- | --- | --- |
| O=C(Nc1cnn(-c2c(F)cccc2F)c1C(F)(F)F)c1cccnc1C(F)F [Example 21] | 2.50^[a]; | 2.43^[b] |
| Cc1c(NC(=O)c2cccnc2C(F)F)cnn1-c1ccccc1F [Example 22] | 1.71^[a]; | 1.68^[b] |
| CCOc1c(NC(=O)c2cccnc2C(F)F)cnn1-c1ccc(Cl)cc1 [Example 225] | 2.62^[a] | – |

Next, values leading:

| LogP [1] | LogP [2] | Structure (SMILES) |
| --- | --- | --- |
| 2.58^[a]; | 2.53^[b] | O=C(Nc1cnn(-c2ccccc2Cl)c1C(F)(F)F)c1cccnc1C(F)F [Example 77] |
| 2.79^[a]; | 2.72^[b] | O=C(Nc1cnn(-c2c(F)cccc2F)c1C(F)(F)F)c1cccnc1C(F)(F)F [Example 19] |
| 2.87^[a]; | 2.80^[b] | O=C(Nc1cnn(-c2ccccc2Cl)c1C(F)(F)F)c1cccnc1C(F)(F)F [Example 20] |
